Measured values published in publication PMC7997578, “Design, Synthesis, Dynamic Docking, Biochemical Characterization, and in Vivo Pharmacokinetics Studies of Novel Topoisomerase II Poisons with Promising Antiproliferative Activity” (Journal of Medicinal Chemistry, 2020).
Where two headings read alike, the source gives them in different places.

Legend:
[1] = test system: DU145 cells; test: cell viability MTT assay, DU145; format: cell-based, human; conditions: mean ± SD of two experiments, read-out: DU145 antiproliferative activity IC50
Procedure: The antiproliferative activity of all compounds was evaluated in (i) DU145, an androgen-independent prostate cancer cell line; (ii) HeLa, a cervical cancer cell line; and (iii) A549, a lung adenocarcinoma cell line (Table 1). […] Undoubtedly, this preliminary cytotoxicity data will need further characterization, also in relation to the in vitro activity of these compounds.
Human cancer cell lines A549 (lung adenocarcinoma, ATCC CCL-185), DU-145 (androgen-independent prostate cancer, ATCC HTB-81), and HeLa (cervical carcinoma, ATCC CCL-2) were obtained from ATCC. Cells were routinely grown in minimal essential medium containing Eagle’s salts and L-glutamine supplemented with 10% heat-inactivated FBS in a humidified atmosphere of 5% CO2 at 37 °C. To assess the antiproliferative activity of the compounds, cells were seeded at a density of 2500 cells/well (HeLa) or 5000 cells/well (A549, DU-145) in 96-well plates, and cell viability was measured using the MTT assay as described previously.[39] Values are reported as the mean ± SD of two independent experiments.

[2] = plasma protein binding (rapid equilibrium dialysis), mouse; format: in vitro ADME; conditions: pH 7.4
Procedure: 3. Aqueous t herm odynam ic solu bili ty
The thermodynamic solubility of 3f was determined by addition of Phosphate Buffered Saline (PBS) at pH 7. 4 to an exces s of solid compound.
The assay was performed by incubation of an aliquot of 2. 5mg of test compound in 500µL of PBS at pH 7. 4. The suspension was shaken at 300 RPM for 24h at 25°C. At the end of the incubation period, the saturated solution was filtered and analyzed by UPLC/MS for the quantification of dissolved compound (in µM) by UV at a specific wavelength ( λmax of the test compound). The analyses were performed on a Waters ACQUITY UPLC/MS SQD system equipped with an ESI ion source. The analyses were run on an ACQUITY UPLC BEH C 18 column (50x2. 1mmI D, particle size 1. 7µm) with a VanGuard BEH C 18 pr e-column (5x2. 1mmID, particle size 1. 7µm), using H 2O + 0. 1% HCOOH (A) and CH 3CN + 0. 1% HCOOH (B) as mobile phase.
4. Plasm a Protei n Bindi ng
The assay was conducted in triplicate in human and mouse plasma. An appropriate volume of plasma was spiked with a known amount of 10mM DMSO stock solution of the test compound, thus reaching the incubation concentrations of 0. 5, 1 and 5 µM. […] At this point, the supernatants were ready for injections in the UPLC -MS/ MS system. […] Plasma protein binding was calculated applying appropriate corrections to compensate for dilutions during sampling.

O=C(Nc1cccc(OC(F)(F)F)c1)c1c(O)n(-c2ccccc2)c(=S)n(-c2ccccc2)c1=O [3f, 6-Hydroxy-4-oxo-1,3-diphenyl-2-thioxo-N-(3-(trifluoromethoxy)phenyl)-1,2,3,4-tetrahydropyrimidine-5-carboxamide]
IC50 ([1]; DU145 prostate cancer cells): 4.7 ± 0.1 µM | IC50 ([1]; Homo sapiens, DU-145, DU145 prostate cancer cells): < 5 µM | fraction unbound at 3 h [2]: < 0.01
